# Measurements: patent US20230354703A1, “ORGANIC COMPOUND AND LIGHT-EMITTING DEVICE” (SEMICONDUCTOR ENERGY LABORATORY CO., LTD., priority 2022, published 2023)
# What was measured:
# [1] = water-solubility examined by calculation: polarization term δp of the solubility parameter (classical molecular dynamics, Desmond/OPLS2005); conditions: from the difference between the calculated δp and the δp of water (16.0); larger difference = lower solubility
# Experimental: Then, the water-solubility of 2,9hpp2Phen was examined by calculation and the results are shown.
# Desmond was used as software for the classical molecular dynamics calculation, and OPLS2005 was used for the force field. The calculation was performed using a high performance computer (Apollo 6500 manufactured by Hewlett Packard Enterprise Development).
# A standard cell containing approximately 32 molecules is used a calculation model. […] After that, the structures are moved and rotated at random to move the molecules by Monte Carlo simulated annealing using OPLS2005 for the force field. Furthermore, the molecules are moved toward the center of the standard cell such that the density thereof is maximized; thus, the initial arrangement is obtained.
# As a basis function, 6-31G** was used, and as a functional, B3LYP-D3 was used. […]
# The aforementioned initial arrangement is subjected to Brownian motion simulation and then defined in an NVT ensemble; subsequently, calculation in an NPT ensemble is performed for an enough relaxation time (30 ns) under the conditions of 1 atm and 300 K with respect to time steps that reproduce molecular vibration (2 fs), so that an amorphous solid is calculated. […]
# The actually measured value δp corresponding to the polarization term for the water-solubility parameter is disclosed as 16.0 in Japanese Published Patent Application No. 2017-173056, for example. […]
# [2] = statement in words, background/description; cited from earlier work
SMILES,solubility in water compared with hpp2Py [1],solubility in water [2]
"c1cc2ccc3ccc(N4CCCN5CCCN=C54)nc3c2nc1N1CCCN2CCCN=C21 [2,9hpp2Phen, 2,9-bis(1,3,4,6,7,8-hexahydro-2H-pyrimido[1,2-a]pyrimidin-1-yl)-1,10-phenanthroline]",less soluble in water than hpp2Py,
"c1cc(N2CCCN3CCCN=C32)c2ccc3c(N4CCCN5CCCN=C54)ccnc3c2n1 [4,7hpp2Phen, 4,7-bis(1,3,4,6,7,8-hexahydro-2H-pyrimido[1,2-a]pyrimidin-1-yl)-1,10-phenanthroline]",less soluble in water than hpp2Py,
"c1cc(N2CCCN3CCCN=C32)nc(N2CCCN3CCCN=C32)c1 [hpp2Py, 1,1′-pyridine-2,6-diyl-bis(1,3,4,6,7,8-hexahydro-2H-pyrimido[1,2-a]pyrimidine)]",,highly soluble in water
